Legend:
Assay type in all cases: in vivo
[1] = test system: wheat/SNB (Parastangaspora nodorum); test: Greenhouse biological efficacy on wheat/SNB; conditions: BAG8 0.25 lb/acre at 20 gal/acre, inoculum 24 hours post spray, Example 26, Table 16, untreated control 6.750
Method: (§1) The BAG8 SC formulations described in Example 10 (BAG8 20% SC) and Example 12 (BAG8 40% SC) and selected BAG8 SC-tank mix formulations described in Example 23 were tested under greenhouse conditions. Data was obtained for soybean/white mold (Sclerotinia sclerotiorum), wheat/SNB (Parastangaspora nodorum), and cucubit/downy mildew. For each experiment, the BAG8 was applied at a rate of 0.25 lb/acre and at a spray rate of 20 gal/acre. Various BAG8 EC formulations, the BAG8 WP formulation described in Example 18, and selected BAG8 SC-tank mix formulations described in Example 23 were tested under greenhouse conditions. Data was obtained for soybean/white mold (Sclerotinia sclerotiorum), wheat/SNB (Parastangaspora nodorum), and cucurbit/downy mildew. For each experiment, the BAG8 was applied at a rate of 0.25 lb/acre at a spray rate of 20 gal/acre (40 mL of spray solution prepared). All inoculum was applied 24 hours post BAG8 spray. Unformulated BAG8 was applied to the plants by dissolving BAG8 in a 30% acetone-70% water solution.

[2] = test system: soybean/white mold (Sclerotinia sclerotiorum); test: Greenhouse biological efficacy on soybean/white mold; conditions: BAG8 0.25 lb/acre at 20 gal/acre, inoculum 24 hours post spray, Example 29, Table 19, untreated control 7.333
Method: as §1

[3] = test system: cucurbit/downy mildew; test: Greenhouse biological efficacy on cucurbit/downy mildew; conditions: BAG8 0.25 lb/acre at 20 gal/acre, inoculum 24 hours post spray
Method: as §1

## OB1OCc2cc(Cl)ccc21 [BAG8, 5-chlorobenzo[c][1,2]oxaborol-1(3H)-ol]
[1]
  Mean Disease Severity: 5.750
[2]
  Mean Disease Severity: 5.333
[3]; Cucumber/Downy Mildew, Example 29, Table 20, untreated control 7.417
  Mean Disease Severity: 5.833
[3]; Curcurbit/Downy Mildew, Example 27, Table 17, untreated control 8.364
  Mean Disease Severity: 2.000
[3]; Curcurbit/Downy Mildew, Example 28, Table 18, untreated control 6.667
  Mean Disease Severity: 5.833

From patent US11834466B2, “Benzoxaborole compounds and formulations thereof” (5Metis, Inc., priority 2017, dated 2023)
